# Experimental data taken from PubChem BioAssay AID330 (DTP/NCI, 2004).
# “And” between values parts separate entries of the source, which are not always exact repeats. Equal entries are not always repeated. Toxic doses and inconclusive results are not listed.
# Tested on: P388 leukemia ip, CD2F1 mice, survival T/C
# Experiment: NCI In Vivo Anticancer Drug Screen. Data for tumor model P388 Leukemia (intraperitoneal) in CD2F1 (CDF1) mice
# Settings: endpoint: median survival time, higher = longer survival
# Outline: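 Mice carrying the transplanted tumor received test compound or vehicle. Survival was recorded in each group, and the value is the treated-group measurement divided by that of the vehicle-treated control group.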
# [1] = dose: 50.0 mg/kg/injection, schedule: Q01DX009 (ip), vehicle: saline with Tween-80
# [2] = dose: 100.0 mg/kg/injection, schedule: Q01DX009 (ip), vehicle: saline with Tween-80
# [3] = dose: 200.0 mg/kg/injection, schedule: Q01DX009 (ip), vehicle: saline with Tween-80
# [4] = dose: 30.0 mg/kg/injection, schedule: Q01DX005 (ip), vehicle: saline with Tween-80
# [5] = dose: 60.0 mg/kg/injection, schedule: Q01DX005 (ip), vehicle: saline with Tween-80
# [6] = dose: 120.0 mg/kg/injection, schedule: Q01DX005 (ip), vehicle: saline with Tween-80
# [7] = dose: 240.0 mg/kg/injection, schedule: Q01DX005 (ip), vehicle: saline with Tween-80
# [8] = dose: 12.5 mg/kg/injection, schedule: Q01DX009 (ip), vehicle: saline with Tween-80
# [9] = dose: 25.0 mg/kg/injection, schedule: Q01DX009 (ip), vehicle: saline with Tween-80
# [10] = dose: 25.0 mg/kg/injection, schedule: Q01DX005 (ip), vehicle: saline with Tween-80
# [11] = dose: 50.0 mg/kg/injection, schedule: Q01DX005 (ip), vehicle: saline with Tween-80
# [12] = dose: 15.0 mg/kg/injection, schedule: Q01DX005 (ip), vehicle: saline with Tween-80
# [13] = dose: 50.0 mg/kg/injection, schedule: Q01DX009 (ip), vehicle: saline
# [14] = dose: 100.0 mg/kg/injection, schedule: Q01DX009 (ip), vehicle: saline
# [15] = dose: 200.0 mg/kg/injection, schedule: Q01DX009 (ip), vehicle: saline
# [16] = dose: 50.0 mg/kg/injection, schedule: Q01DX005 (ip), vehicle: Klucel (hydroxypropylcellulose) (HPC)
# [17] = dose: 100.0 mg/kg/injection, schedule: Q01DX005 (ip), vehicle: Klucel (hydroxypropylcellulose) (HPC)
# [18] = dose: 100.0 mg/kg/injection, schedule: Q01DX001 (ip), vehicle: saline with Tween-80
# [19] = dose: 200.0 mg/kg/injection, schedule: Q01DX001 (ip), vehicle: saline with Tween-80
compound,measurement,setting,value
CCCCCCCCCCOC(=O)c1ccc(O)cc1,T/C,[1],97 % of control
same,T/C,[2],102 % of control
same,T/C,[3],97 % of control
CN=NN(C)C(=O)NC,T/C,"dose: 12.5 mg/kg/injection, schedule: Q01DX005 (ip), vehicle: saline",102 % of control
same,T/C,"dose: 25.0 mg/kg/injection, schedule: Q01DX005 (ip), vehicle: saline",117 % of control
CC(C)(CC#N)c1cc(CC(C)(C)c2cc(CC(C)(C)c3cc(CC(C)(C)C4(C)OCCO4)no3)no2)no1,T/C,[4],87 % of control
same,T/C,[5],90 % of control and 91 % of control
same,T/C,[6],86 % of control
same,T/C,[7],87 % of control
Cc1ccc(N=C(N=C(NC(=O)c2ccccc2)c2ccccc2)c2ccccc2)cc1,T/C,[8],99 % of control
same,T/C,[9],97 % of control
same,T/C,[1],89 % of control and 93 % of control (2×)
same,T/C,[3],95 % of control
CC1(C)N=C(N)N=C(N)N1c1ccc(S(C)(=O)=O)cc1,T/C,"dose: 12.5 mg/kg/injection, schedule: Q01DX005 (ip), vehicle: saline with Tween-80",103 % of control
same,T/C,[10],101 % of control
same,T/C,[11],100 % of control and 106 % of control
C/C=C/C=c1/[nH]c(=O)/c(=C\C)[nH]c1=O,T/C,"dose: 50.0 mg/kg/injection, schedule: Q04DX003 (ip), vehicle: Klucel (hydroxypropylcellulose) (HPC)",100 % of control
same,T/C,"dose: 100.0 mg/kg/injection, schedule: Q04DX003 (ip), vehicle: Klucel (hydroxypropylcellulose) (HPC)",98 % of control
same,T/C,"dose: 200.0 mg/kg/injection, schedule: Q04DX003 (ip), vehicle: Klucel (hydroxypropylcellulose) (HPC)",90 % of control
C[C@]12C=CC(=O)NC[C@@H]1CC[C@@H]1[C@@H]2CC[C@]2(C)[C@@H](OC(=O)COc3ccc(N(CCCl)CCCl)cc3)CC[C@@H]12,T/C,"dose: 7.5 mg/kg/injection, schedule: Q01DX005 (ip), vehicle: saline with Tween-80",120 % of control
same,T/C,[12],120 % of control
same,T/C,[4],151 % of control
same,T/C,[5],198 % of control and 255 % of control
same,T/C,[6],157 % of control
CN(C)c1cccc2c(Cl)c(Cl)c3cccc(N(C)C)c3c12,T/C,[5],98 % of control
same,T/C,[6],100 % of control
same,T/C,[7],99 % of control
CC(C)(C)NCc1cc(Nc2ccnc3cc(Cl)ccc23)cc(-c2ccc(Cl)cc2)c1O,T/C,[12],100 % of control
same,T/C,[4],100 % of control
same,T/C,[5],95 % of control and 98 % of control
same,T/C,[6],105 % of control
same,T/C,[7],97 % of control
CCOC(=O)Cn1nc([O-])[n+]2ccccc12,T/C,"dose: 100.0 mg/kg/injection, schedule: Q04DX002 (ip), vehicle: saline",100 % of control
same,T/C,"dose: 200.0 mg/kg/injection, schedule: Q04DX002 (ip), vehicle: saline",107 % of control
same,T/C,"dose: 400.0 mg/kg/injection, schedule: Q04DX002 (ip), vehicle: saline",98 % of control
CC1Cn2c(Cc3ccccc3)nnc2S1 (stereo not drawn),T/C,[5],104 % of control
same,T/C,[6],93 % of control
same,T/C,[7],100 % of control
CC(=O)CSc1ccc(Cl)cc1,T/C,[1],99 % of control
same,T/C,[2],102 % of control
same,T/C,[3],116 % of control
C=C[C@H]1C2=CCOC(=O)C2=CO[C@@H]1OC1OC(CO)C(O)C(O)C1O (stereo partly drawn),T/C,"dose: 0.75 mg/kg/injection, schedule: Q01DX005 (ip), vehicle: water",95 % of control
same,T/C,"dose: 1.5 mg/kg/injection, schedule: Q01DX005 (ip), vehicle: water",95 % of control
same,T/C,"dose: 3.0 mg/kg/injection, schedule: Q01DX005 (ip), vehicle: water",95 % of control
same,T/C,"dose: 6.0 mg/kg/injection, schedule: Q01DX005 (ip), vehicle: water",99 % of control
O=C1CCCN1.O=C1CCCN1.[Br][Co][Br],T/C,[9],104 % of control
same,T/C,[1],122 % of control
O=C(O)C1CCC=CCC1,T/C,"dose: 50.0 mg/kg/injection, schedule: Q01DX009 (ip), vehicle: other",100 % of control
same,T/C,"dose: 100.0 mg/kg/injection, schedule: Q01DX009 (ip), vehicle: other",104 % of control
same,T/C,"dose: 200.0 mg/kg/injection, schedule: Q01DX009 (ip), vehicle: other",100 % of control
O=C(OC(c1ccccc1)c1ccccc1)c1ccccc1,T/C,[13],99 % of control
same,T/C,[14],108 % of control
same,T/C,[15],102 % of control
CC([NH-])CC(C)[NH-].O=C(O)C(=O)O.[Pt+2] (stereo not drawn),T/C,"dose: 12.5 mg/kg/injection, schedule: Q04DX002 (ip), vehicle: saline with Tween-80",150 % of control
same,T/C,"dose: 25.0 mg/kg/injection, schedule: Q04DX002 (ip), vehicle: saline with Tween-80",174 % of control
CC1CCP(=O)(c2ccccc2)C1 (stereo not drawn),T/C,"dose: 50.0 mg/kg/injection, schedule: Q01DX005 (ip), vehicle: saline",104 % of control
same,T/C,"dose: 100.0 mg/kg/injection, schedule: Q01DX005 (ip), vehicle: saline",105 % of control
same,T/C,"dose: 200.0 mg/kg/injection, schedule: Q01DX005 (ip), vehicle: saline",105 % of control
CC(/C=N/Nc1ccccc1)=N\N=c1/scc(-c2ccc(Br)cc2)n1-c1ccc(Br)cc1,T/C,"dose: 100.0 mg/kg/injection, schedule: Q04DX002 (ip), vehicle: saline with Tween-80",86 % of control
same,T/C,"dose: 200.0 mg/kg/injection, schedule: Q04DX002 (ip), vehicle: saline with Tween-80",86 % of control
C#CCN1c2c(nc(N)[nH]c2=O)NCC1CNc1ccc(C(=O)NC(CCC(=O)O)C(=O)O)cc1 (stereo not drawn),T/C,"dose: 50.0 mg/kg/injection, schedule: Q01DX005 (ip), vehicle: alkali diluted with saline",105 % of control
same,T/C,"dose: 100.0 mg/kg/injection, schedule: Q01DX005 (ip), vehicle: alkali diluted with saline",92 % of control
same,T/C,"dose: 200.0 mg/kg/injection, schedule: Q01DX005 (ip), vehicle: alkali diluted with saline",105 % of control
CC1(C)Oc2ccccc2O1,T/C,[8],96 % of control
same,T/C,[9],108 % of control
same,T/C,[1],107 % of control
same,T/C,[2],113 % of control
CC(C)N(CCn1cnc2c(N)ncnc21)C(C)C,T/C,[16],100 % of control
same,T/C,[17],97 % of control
C[C@]12CC[C@H](O)CC1=CC[C@@H]1[C@@H]2CC[C@]2(C)C(=O)CC[C@@H]12,T/C,[10],94 % of control
same,T/C,[11],90 % of control
same,T/C,"dose: 100.0 mg/kg/injection, schedule: Q01DX005 (ip), vehicle: saline with Tween-80",91 % of control
same,T/C,"dose: 200.0 mg/kg/injection, schedule: Q01DX005 (ip), vehicle: saline with Tween-80",90 % of control
COC(=O)C1C2COc3ccccc3C2=NC1c1ccc([N+](=O)[O-])cc1 (stereo not drawn),T/C,"dose: 25.0 mg/kg/injection, schedule: Q01DX001 (ip), vehicle: Klucel (hydroxypropylcellulose) (HPC)",91 % of control
same,T/C,"dose: 50.0 mg/kg/injection, schedule: Q01DX001 (ip), vehicle: Klucel (hydroxypropylcellulose) (HPC)",96 % of control
same,T/C,"dose: 100.0 mg/kg/injection, schedule: Q01DX001 (ip), vehicle: Klucel (hydroxypropylcellulose) (HPC)",95 % of control
CCOC(=O)Nc1cc2ncc(-c3ccccc3)nc2c(N)n1,T/C,"dose: 50.0 mg/kg/injection, schedule: Q01DX001 (ip), vehicle: saline with Tween-80",97 % of control
same,T/C,[18],93 % of control
same,T/C,[19],90 % of control
Nc1nc2c(ncn2C2OC(CO)C(O)C2O)c(=O)o1 (stereo not drawn),T/C,[16],106 % of control
same,T/C,[17],112 % of control
same,T/C,"dose: 200.0 mg/kg/injection, schedule: Q01DX005 (ip), vehicle: Klucel (hydroxypropylcellulose) (HPC)",116 % of control
same,T/C,"dose: 400.0 mg/kg/injection, schedule: Q01DX005 (ip), vehicle: Klucel (hydroxypropylcellulose) (HPC)",111 % of control
O=C1CCC2(c3ccccc3)CCCN=C2N1 (stereo not drawn),T/C,[18],104 % of control
same,T/C,[19],99 % of control
N#CC1CC=CCN1CCc1ccccc1 (stereo not drawn),T/C,"dose: 12.5 mg/kg/injection, schedule: Q01DX005 (ip), vehicle: other",101 % of control
same,T/C,"dose: 25.0 mg/kg/injection, schedule: Q01DX005 (ip), vehicle: other",101 % of control
same,T/C,"dose: 50.0 mg/kg/injection, schedule: Q01DX005 (ip), vehicle: other",111 % of control
same,T/C,"dose: 50.0 mg/kg/injection, schedule: Q01DX005 (ip), vehicle: saline + Tween-80 + alcohol",116 % of control
CC(N)C(O)c1ccc(O)cc1 (stereo not drawn),T/C,[13],102 % of control and 108 % of control
same,T/C,[14],101 % of control
same,T/C,[15],101 % of control and 108 % of control
same,T/C,"dose: 400.0 mg/kg/injection, schedule: Q01DX009 (ip), vehicle: saline",87 % of control and 89 % of control
